From ChEMBL document CHEMBL2331186, “Five new phenolic glycosides from Hedyotis scandens” (Bioorg Med Chem Lett, 2013)
The source made the active and inactive calls. No cut-off for these calls is given here.

Tests used:
[1] = tested on: Respiratory syncytial virus; assay: Antiviral activity against Respiratory syncytial virus assessed as reduction of virus-induced cytopathic effect at maximal non-toxic concentration; type: functional, organism-based
[2] = tested on: Respiratory syncytial virus; assay: Antiviral activity against Respiratory syncytial virus assessed as reduction of virus-induced cytopathic effect; type: functional, organism-based

Row | Compound | Activity [1] | Activity [2]
1 | COc1cc(O[C@@H]2O[C@H](CO[C@@H]3OC[C@](O)(COC(=O)/C=C/c4ccc(O)cc4)[C@H]3O)[C@@H](O)[C@H](O)[C@H]2O)cc(OC)c1OC | inactive | –
2 | COC(=O)[C@@H](Cc1ccc(O)c(O)c1)OC(=O)/C=C/c1ccc(OC)c(O)c1 | inactive | –
3 | Cc1occc(=O)c1O[C@@H]1O[C@H](CO[C@@H]2OC[C@](O)(COC(=O)/C=C/c3ccc(O)c(O)c3)[C@H]2O)[C@@H](O)[C@H](O)[C@H]1O | inactive | –
4 | OCCc1cc(O)cc(O[C@@H]2O[C@H](CO)[C@@H](O)[C@H](O)[C@H]2O)c1 | – | Active
5 | COC(=O)[C@@H](Cc1ccc(O)c(O)c1)OC(=O)/C=C/c1ccc(O)c(O[C@@H]2O[C@H](CO)[C@@H](O)[C@H](O)[C@H]2O)c1 | inactive | –
6 | COC(=O)[C@@H](Cc1ccc(O)c(O)c1)OC(=O)/C=C/c1ccc(O)c(O)c1 | inactive | –
7 | Cc1occc(=O)c1O[C@@H]1O[C@H](CO[C@@H]2OC[C@](O)(COC(=O)/C=C/c3ccc(O)cc3)[C@H]2O)[C@@H](O)[C@H](O)[C@H]1O | inactive | –
8 | O=C(O)/C=C/c1ccc(O)c(O)c1 | inactive | –
9 | O=C(/C=C/c1ccc(O)c(O)c1)O/C=C\c1ccc(O)c(O)c1 | inactive | –
10 | O=C(/C=C/c1ccc(O)c(O)c1)O[C@H](Cc1ccc(O)c(O)c1)C(=O)O | inactive | –
11 | Cc1occc(=O)c1O[C@@H]1O[C@H](CO[C@@H]2OC[C@](O)(CO)[C@H]2O)[C@@H](O)[C@H](O)[C@H]1O | – | Active
12 | CCCCOC(=O)[C@@H](Cc1ccc(O)c(O)c1)OC(=O)/C=C/c1ccc(O)c(O)c1 | inactive | –
13 | O=C(/C=C/c1ccc(O)c(O[C@@H]2O[C@H](CO)[C@@H](O)[C@H](O)[C@H]2O)c1)O/C=C\c1ccc(O)c(O)c1 | inactive | –
14 | CCCCOC(=O)[C@@H](Cc1ccc(O)c(O)c1)OC(=O)/C=C/c1ccc(O)c(O[C@@H]2O[C@H](CO)[C@@H](O)[C@H](O)[C@H]2O)c1 | inactive | –
15 | N#C[C@H](O[C@@H]1O[C@H](CO[C@@H]2OC[C@](O)(COC(=O)/C=C/c3ccc(O)cc3)[C@H]2O)[C@@H](O)[C@H](O)[C@H]1O)c1ccccc1 | inactive | –
